Assays:
[1] = Desmopressin flux through skin (microprojection solid film system and gel pack), from urinary excretion of tritium; type: in vivo, HGPs; details: 5 mg tritiated desmopressin solid film, 2% HEC gel pack; 1 h and 24 h; FIG. 20
Method: An experiment was conducted to test the concept of the hydratable system using the peptide desmopressin. A system similar to that presented in Example 2 was provided.
The system included a 2 cm^2 solid film containing 5 mg tritiated desmopressin. The thin film was prepared by casting a 20 mil thick aqueous solution comprised of 10 wt. % HPMC 2910 USP and 20 wt. % glycerol. The film was dried and punched into 2 cm^2 discs. Each disc was imbibed with a 20 wt. % ^3H desmopressin solution and subsequently dried. The solid film was subsequently disposed proximate the top surface of the microprojection member. The gel pack or gel reservoir contained 0.120 mL of 2% HEC (NATROSOL® 250 HHX) in water.
(§1) Following application of the microprojection solid film system in HGPs, the gel pack was placed on top of the microprojection member, as illustrated in FIG. 12. At 1 h and 24 h after application, three (3) systems from each group of HGPs were removed and the residual drug washed form the skin. The amount of the drug penetrated during these times intervals was determined by measuring urinary excretion of tritium (previous studies had shown that in HGPs, 71% of ^3H desmopressin injected intravenously is excreted in urine).

[2] = Urinary excretion of 3H desmopressin injected intravenously (previous studies); type: in vivo; details: hairless, urine, iv, total radioactivity, injected intravenously in HGPs, read-out: fraction excreted in urine
Method: as §1

SMILES: NC(=O)CC[C@@H]1NC(=O)[C@H](Cc2ccccc2)NC(=O)[C@H](Cc2ccc(O)cc2)NC(=O)CCSSC[C@@H](C(=O)N2CCC[C@H]2C(=O)N[C@H](CCCN=C(N)N)C(=O)NCC(N)=O)NC(=O)[C@H](CC(N)=O)NC1=O [desmopressin]
- flux through the skin, time dependence [1]: time dependant flux
- dose excreted [2]: 71%

— patent publication US20050089554A1, “Apparatus and method for enhancing transdermal drug delivery” (priority 2003, published 2005)
